From patent publication US12384743B2, “Compositions comprising (R)-2-amino-3-phenylpropyl carbamate and uses thereof” (priority 2016, dated 2025)
Structures can show the parent of a compound that is named as a salt. Where two headings read alike, the source gives them in different places.

Tests used:
[1] = Aqueous solubility of Form B in different pH buffers; type: physicochemical; settings: thermodynamic from solid
[2] = type: physicochemical; settings: for relative humidity at which conversion to Form B occurred: slurrying Form A only
Protocol: Slurry experiments were performed with various water activities starting with Form A only and also by conducting interconversion slurries or pre-saturating solutions with APC and then adding equal amounts of Form A and Form B. When slurrying Form A only, conversion to Form B at room temperature occurred at 67% RH, and 40% RH at 2-8° C. With the interconversion slurries, Form B was isolated from all experiments with relative humidities ranging from 50% to 70%.

[3] = Drying studies on Form B (temperature, vacuum, milling, desiccant, low RH stressing); type: physicochemical
Protocol: Drying studies were performed on Form B. The drying experiments were performed under various temperatures with and without vacuum. Additionally, milling, storage under desiccant, and low RH stressing were conducted.

[4] = Drying of Form B in scaled-up method (low vacuum); type: physicochemical; settings: oven temperature 20-25° C., low vacuum (700-750 mbar)
Protocol: An additional scaled-up method for producing Form B was developed that reduced reaction time and volume and increased yield. Isolation of Form B from Form A was carried out in 5 volumes of solvent (acetonitrile:water (95%:5% v:v)) at about 20° C. for about 1-2 hours. The drying process was carried out at an oven temperature of 20-25° C. and low vacuum (700-750 mbar). Under these drying conditions Form B was stable and no detectable Form A was formed. This method was used on a 4.5 kg batch of APC and produced Form B with a yield of 93.7%.

[5] = Humidity stressing of Form A; type: physicochemical; settings: approximately 75% humidity (RH)

Row | Compound | solubility ([1]; aqueous buffer, Buffer solution pH 4.5, pH (buffer) measured starting conditions 4.5, pH (buffered sample) 5.7, read-out: Solubility (mg/ml mean of triplicates)) [mg/mL] | solubility ([1]; aqueous buffer, Buffer solution pH 5.5, pH (buffer) measured starting conditions 5.5, pH (buffered sample) 6.0, read-out: Solubility (mg/ml mean of triplicates)) [mg/mL] | solubility ([1]; aqueous buffer, Buffer solution pH 7.4, pH (buffer) measured starting conditions 7.4, pH (buffered sample) 6.4, read-out: Solubility (mg/ml mean of triplicates)) [mg/mL] | solubility ([1]; aqueous buffers of different pH, aqueous buffer, different pH buffers, read-out: aqueous solubility) [mg/mL] | solubility ([1]; buffer solution, aqueous buffer, pH 1-6.5, read-out: solubility in buffer solution) [mg/mL] | solubility ([1]; simulated gastric fluid, Buffer solution pH 1.2, pH (buffer) measured starting conditions 1.2, pH (buffered sample) 4.5, read-out: Solubility (mg/ml mean of triplicates)) [mg/mL] | relative stability of solid forms ([2]; interconversion slurry of Form A and Form B, approximately 50% RH or greater at room temperature) | stability of solid form (overall result of the drying studies) ([3]; low RH or elevated temperature) | solid form after drying/stress ([3]; vacuum drying at 50° C. 1 day, heating at 80° C. 1 day, milling) | solid form after drying/stress ([3]; vacuum drying at ambient temperature 1 day, heating at 40° C. 1 day, storage under desiccant 1 day, stressing at 33% RH 2 weeks) | stability of solid form on drying [4] | relative humidity at which conversion to Form B occurred ([2]; 2-8° C.) [% RH] | relative humidity at which conversion to Form B occurred ([2]; room temperature) [% RH] | solid form after humidity stressing [5]
1 | NC(=O)OC[C@H](N)Cc1ccccc1 [Form B, (R)-2-amino-3-phenylpropyl carbamate hydrochloride] | 733 | 742 | 746 | > 700 | 700 to 750 | 732 | more stable form | not stable | Full dehydration to Form A | Partial conversion to Form A | stable | – | – | –
2 | NC(=O)OC[C@H](N)Cc1ccccc1 [Form A, (R)-2-amino-3-phenylpropyl carbamate hydrochloride] | – | – | – | – | – | – | – | – | – | – | – | 40 | 67 | Partial conversion to Form B
